ChEMBL document CHEMBL4312026, “Synthesis, biological and molecular dynamics investigations with a series of triazolopyrimidine/triazole-based benzenesulfonamides as novel carbonic anhydrase inhibitors” (Eur J Med Chem, 2020)

Experiments:
[1] = target: T1, Carbonic anhydrase 1 (Homo sapiens, UniProt P00915); experiment: Inhibition of recombinant human carbonic anhydrase-1 incubated for 15 mins by stopped flow CO2 hydrase assay
[2] = target: T2, Carbonic anhydrase 9 (Homo sapiens, UniProt Q16790); experiment: Inhibition of recombinant human carbonic anhydrase-9 incubated for 15 mins by stopped flow CO2 hydrase assay
[3] = target: T3, Carbonic anhydrase 2 (Homo sapiens, UniProt P00918); experiment: Inhibition of recombinant human carbonic anhydrase-2 incubated for 15 mins by stopped flow CO2 hydrase assay
[4] = target: T2, Carbonic anhydrase 9; conditions: at 0.1 µM
Description: Inhibition of recombinant human carbonic anhydrase-9 at 0.1 uM after 15 mins by stopped flow CO2 hydrase assay (Rvb = 0%)

[5] = target: T1, Carbonic anhydrase 1; experiment: Inhibition of recombinant human carbonic anhydrase-1 at 0.01 uM after 15 mins by stopped flow CO2 hydrase assay (reference value: 0%)
[6] = target: T1, Carbonic anhydrase 1; experiment: Inhibition of recombinant human carbonic anhydrase-1 at 1 uM after 15 mins by stopped flow CO2 hydrase assay (reference value: 0%)
[7] = target: T3, Carbonic anhydrase 2; experiment: Inhibition of recombinant human carbonic anhydrase-2 at 0.1 uM after 15 mins by stopped flow CO2 hydrase assay (reference value: 0%)
[8] = target: T3, Carbonic anhydrase 2; experiment: Inhibition of recombinant human carbonic anhydrase-2 at 1 uM after 15 mins by stopped flow CO2 hydrase assay (reference value: 0%)
[9] = target: T1, Carbonic anhydrase 1; experiment: Inhibition of recombinant human carbonic anhydrase-1 at 0.1 uM after 15 mins by stopped flow CO2 hydrase assay (reference value: 0%)
[10] = target: T2, Carbonic anhydrase 9; conditions: at 1 nM
Description: Inhibition of recombinant human carbonic anhydrase-9 at 1 nM after 15 mins by stopped flow CO2 hydrase assay (Rvb = 0%)

[11] = target: T2, Carbonic anhydrase 9; experiment: Inhibition of recombinant human carbonic anhydrase-9 at 0.1 nM after 15 mins by stopped flow CO2 hydrase assay (reference value: 0%)
[12] = target: T1, Carbonic anhydrase 1; experiment: Inhibition of recombinant human carbonic anhydrase-1 at 10 uM after 15 mins by stopped flow CO2 hydrase assay (reference value: 0%)
[13] = target: T3, Carbonic anhydrase 2; experiment: Inhibition of recombinant human carbonic anhydrase-2 at 0.01 uM after 15 mins by stopped flow CO2 hydrase assay (reference value: 0%)
[14] = target: T2, Carbonic anhydrase 9; conditions: at 0.01 µM
Description: Inhibition of recombinant human carbonic anhydrase-9 at 0.01 uM after 15 mins by stopped flow CO2 hydrase assay (Rvb = 0%)

[15] = target: T3, Carbonic anhydrase 2; experiment: Inhibition of recombinant human carbonic anhydrase-2 at 10 uM after 15 mins by stopped flow CO2 hydrase assay (reference value: 0%)

T1 sequence (P00915 whole entry): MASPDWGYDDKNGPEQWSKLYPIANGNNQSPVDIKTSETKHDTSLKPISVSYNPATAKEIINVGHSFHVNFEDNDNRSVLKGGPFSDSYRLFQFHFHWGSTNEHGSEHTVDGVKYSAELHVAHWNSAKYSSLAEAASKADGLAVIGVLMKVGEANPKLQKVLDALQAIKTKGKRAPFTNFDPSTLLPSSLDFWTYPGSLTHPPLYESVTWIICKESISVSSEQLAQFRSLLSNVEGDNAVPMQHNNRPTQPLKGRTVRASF

| Ki [1] | Ki [2] | Ki [3] | Structure (SMILES) | other results |
| --- | --- | --- | --- | --- |
| 495 nM | 31.5 nM | 65.2 nM | Nc1nc(C(=O)N/N=C/c2ccc(F)cc2)nn1-c1ccc(S(N)(=O)=O)cc1 |  |
| 537 nM | 16.4 nM | 10.9 nM | Nc1nc(C(=O)NNC(=O)Nc2ccc(Cl)cc2)nn1-c1ccc(S(N)(=O)=O)cc1 |  |
| 335 nM | 8.3 nM | 8.8 nM | Nc1nc(C(=O)N/N=C/c2ccc(O)cc2)nn1-c1ccc(S(N)(=O)=O)cc1 |  |
| 94.4 nM | 7.8 nM | 65.5 nM | Nc1nc(NC(=O)Nc2ccc(F)cc2)nn1-c1ccc(S(N)(=O)=O)cc1 |  |
| 523 nM | 22.8 nM | 19.9 nM | NNC(=O)c1nc(N)n(-c2ccc(S(N)(=O)=O)cc2)n1 |  |
| 1540 nM | 34.4 nM | 24.7 nM | Nc1nc(C(=O)N/N=C/c2ccc([N+](=O)[O-])cc2)nn1-c1ccc(S(N)(=O)=O)cc1 |  |
| 307 nM | 4.9 nM | 70.5 nM | Nc1nc(C(=O)NNC(=O)Nc2ccccc2)nn1-c1ccc(S(N)(=O)=O)cc1 |  |
| 2380 nM | 63.2 nM | 325 nM | COc1ccc(/C=N/NC(=O)c2nn(-c3ccc(S(N)(=O)=O)cc3)c3nc(C)cc(=O)n23)cc1 |  |
| 695 nM | 3.3 nM | 127 nM | COc1ccc(NC(=O)Nc2nc(N)n(-c3ccc(S(N)(=O)=O)cc3)n2)cc1 | inhibition [4]: 79 to 81%; inhibition at 0.25 h, 0.01 µM [5]: 14%; inhibition at 0.25 h, 1 µM [6]: 63%; inhibition at 0.25 h, 0.1 µM [7]: 48%; inhibition at 0.25 h, 1 µM [8]: 76%; inhibition at 0.25 h, 0.1 µM [9]: 31%; inhibition [10]: 45 to 47%; inhibition [11]: 18 to 20%; inhibition at 0.25 h, 10 µM [12]: 75%; inhibition at 0.25 h, 0.01 µM [13]: 15%; inhibition [14]: 72 to 74%; inhibition at 0.25 h, 10 µM [15]: 85% |
| 403 nM | 43.3 nM | 9.5 nM | Nc1nc(NC(=O)Nc2ccc(Cl)cc2)nn1-c1ccc(S(N)(=O)=O)cc1 |  |
| 368 nM | 40.2 nM | 9.7 nM | Nc1nc(C(=O)NNC(=S)Nc2ccccc2)nn1-c1ccc(S(N)(=O)=O)cc1 |  |
|  | 0.7 nM |  | NS(=O)(=O)c1ccc(-n2nnc(C(=O)N/N=C(/CC(=O)c3ccccn3)C(F)(F)F)c2-c2ccccc2)cc1 |  |
| 598 nM | 16.7 nM | 11.1 nM | Nc1nc(C(=O)NNC(=S)Nc2ccc(Cl)cc2)nn1-c1ccc(S(N)(=O)=O)cc1 |  |
| 633 nM | 41.3 nM | 8.9 nM | C/C(=N\NC(=O)c1nc(N)n(-c2ccc(S(N)(=O)=O)cc2)n1)c1ccccc1 |  |
| 507 nM | 15.3 nM | 9.6 nM | Nc1nc(NC(=O)Nc2ccc(C(=O)O)cc2)nn1-c1ccc(S(N)(=O)=O)cc1 |  |
| 3720 nM | 47.9 nM | 537 nM | Cc1cc(=O)n2c(C(=O)N/N=C/c3ccccn3)nn(-c3ccc(S(N)(=O)=O)cc3)c2n1 |  |

| Ki [1] | Ki [2] | Ki [3] | Structure (SMILES) | other results |
| --- | --- | --- | --- | --- |
| 2480 nM | 24.6 nM | 456 nM | Cc1cc(=O)n2c(C(=O)N/N=C/c3ccncc3)nn(-c3ccc(S(N)(=O)=O)cc3)c2n1 |  |
| 1680 nM | 45.4 nM | 74.7 nM | Cc1cc(=O)n2c(C(=O)NN)nn(-c3ccc(S(N)(=O)=O)cc3)c2n1 |  |
| 4950 nM | 85 nM | 838 nM | Cc1cc(=O)n2c(C(=O)N/N=C/c3ccc(N4CCN(C)CC4)cc3)nn(-c3ccc(S(N)(=O)=O)cc3)c2n1 |  |
| 698 nM | 35.9 nM | 85.6 nM | CCOC(=O)c1nn(-c2ccc(S(N)(=O)=O)cc2)c2nc(C)cc(=O)n12 |  |
| 703 nM | 73.2 nM | 6.9 nM | Nc1nc(C(=O)N/N=C/c2ccc(Cl)cc2)nn1-c1ccc(S(N)(=O)=O)cc1 |  |
| 988 nM | 19.7 nM | 64.2 nM | Nc1nc(C(=O)N/N=C/c2ccc(N3CCOCC3)cc2)nn1-c1ccc(S(N)(=O)=O)cc1 |  |
| 442 nM | 8.2 nM | 9.8 nM | Nc1nc(NC(=O)Nc2ccccc2)nn1-c1ccc(S(N)(=O)=O)cc1 |  |
| 825 nM | 33 nM | 95.4 nM | Nc1nc(C(=O)N/N=C/c2ccc(N3CCCCC3)cc2)nn1-c1ccc(S(N)(=O)=O)cc1 |  |
| 313 nM | 3.9 nM | 42.8 nM | Cc1ccc(NC(=O)Nc2nc(N)n(-c3ccc(S(N)(=O)=O)cc3)n2)cc1 |  |
| 793 nM | 31.7 nM | 53.9 nM | C/C(=N\NC(=O)c1nc(N)n(-c2ccc(S(N)(=O)=O)cc2)n1)c1ccc(N2CCOCC2)cc1 |  |
| 677 nM | 28.6 nM | 78.7 nM | Nc1nc(NC(=O)Nc2ccc(S(N)(=O)=O)cc2)nn1-c1ccc(S(N)(=O)=O)cc1 |  |
| 477 nM | 6.6 nM | 74.2 nM | Nc1nc(C(=O)N/N=C/c2cccnc2)nn1-c1ccc(S(N)(=O)=O)cc1 |  |
| 295 nM | 5.8 nM | 8.5 nM | C/C(=N\NC(=O)c1nc(N)n(-c2ccc(S(N)(=O)=O)cc2)n1)c1ccncc1 |  |
| 771 nM | 41.1 nM | 86.4 nM | Nc1nc(C(=O)N/N=C/c2ccccc2)nn1-c1ccc(S(N)(=O)=O)cc1 |  |
|  | 9.7 nM |  | CC(=O)OC[C@@H]1O[C@@H](OCc2cn(-c3ccc(S(N)(=O)=O)cc3)nn2)[C@@H](OC(C)=O)[C@H](OC(C)=O)[C@H]1OC(C)=O |  |
|  | 0.16 nM |  | COC(=O)c1nn(-c2ccc(S(N)(=O)=O)cc2)c2nc3cc(-c4cccs4)cc(-c4ccc([N+](=O)[O-])cc4)c3c(=O)n12 |  |
